Measured values taken from patent US11046647B2, “Activators of the unfolded protein response” (The Board of Trustees of the University of Illinois, priority 2018, dated 2021).

Columns and labels:
[1] = system: ERα positive and ERα negative cells; type: cell-based
Procedure: ALAMAR BLUE RAPTINAL ASSAYS: Cells were plated at 4,000-10,000 cells/well (96 well plate), usually in 50 μl of medium. After about 18 hours, an additional 50 μl of medium containing 2× the desired final concentration of the test compound (C-105) was added to each well. After 24 hours Alamar Blue reagent was added and fluorescence in the wells was read (BMG PheraStar or Molecular Devices Spectra Max M3 Microplate Reader). % relative death was determined by setting the reading for raptinal-treated cells to 100% dead cells and the reading for vehicle-treated cells to 0% dead cells.
ERα positive MCF-7 breast cancer, Caov-3 ovarian cancer and ECC-1 uterine cancer cells and ERα negative MDA-MB-231 human breast cancer cells and HeLa, human cervical carcinoma cells and MCF-10A human mammary epithelial cells were plated at 10,000 cells/well (96 well plate) in 50 μl of medium. After about 18 hours, an additional 50 μl of medium containing 2× the desired final concentration of the test compound (C-105) was added to each well (final vol. 100 μl/well). After 24 hours Alamar Blue reagent was added and fluorescence in the wells was read after 1 hour (BMG PheraStar Microplate Reader). % relative death was determined by setting the reading for 10,000 nM raptinal-treated cells to 100% dead cells and the reading for vehicle-treated cells to 0% dead cells. (Data is the average ±SEM of 3 independent experiments with 5 biological replicates for each sample within each independent experiment.)
FIG. 3 compares the ability of (±)-105 to kill ERα positive and ERα negative cells. The dose response tests the ability of (±)-105 to rapidly kill ERα positive and ERα negative cells. […] After 24 hours Alamar Blue reagent was added and fluorescence in the wells was read. % relative death was determined by setting the reading for […] raptinal-treated cells to 100% dead cells and the reading for vehicle-treated cells to 0% dead cells. […]

[2] = system: panel of cancer cell lines; experiment: Alamar blue 24-hour IC50 against a panel of cancer cell lines; type: cell-based; conditions: Homo sapiens, average
Procedure: FIG. 36. Discovery of SERK-F6 (also known as, C(−)-105, (−)-105, (R)-105, (−)-1, or (R)-1), a compound that kills ERα-positive cancer cells, a, Chemical structures of BHPI and racemic compound 1 (i.e. (±)-1), and their cytotoxic activity on T47D breast cancer cells after 24-hour incubations with concentrations as indicated in nM. Cells were stained with annexin V-FITC and PI dyes prior to analysis via flow cytometry. […] Cells were incubated with SERK-F6 or positive control, Raptinal, for 24 hours and then stained with annexin V-FITC and PI dyes and analyzed via flow cytometry. […] Cell viability was measured by Alamar blue fluorescence and set relative to a vehicle control and a quantitative dead control treated with Raptinal. […] Cell number was determined by MTS.
FIG. 40. […] Concentration was determined via LC/MS/MS analysis. […] Concentrations were determined via LC/MS/MS analysis. […]
Cell lines: ERα positive breast cancer: T47D, MCF-7 TYS (T47D Y537S) TDG (T47D D538G), BT-474; ERα negative MDA-MB-231 breast cancer cells; 6,000 cells/well were plated (96 well plate) in 100 μl of medium. […] After 2-4 hours fluorescence in the wells was read (λex: 555 nm, λem: 585 nm, Spectra Max M3 Plate reader). % relative death was determined by setting the reading for 10,000 nM raptinal-treated cells to 100% dead cells and the reading for vehicle-treated cells to 0% dead cells. […]

[3] = system: MCF-7Y537S (MCF-7 ERαY537S-luciferase) cells; experiment: Long-term cell culture experiment, MCF-7 ERαY537S-luciferase; type: cell-based, human; conditions: conditions as FIG. 15 (1 μM)

SMILES | selectivity for ERα positive cancer cell lines ([1]; 0-10,000 nM, 24 hours) | effect in ERα negative cell lines ([1]; concentrations more than 10 times higher than those that kill ERα positive cells) | IC50 [2] [nM] | eradication of cells in long-term experiment [3]
O=C1Nc2c(C(F)(F)F)cccc2C1(c1ccc(O)cc1)c1ccc(OC(F)(F)F)cc1 (racemic) [(±)-105, 3-(4-hydroxyphenyl)-3-(4-(trifluoromethoxy)phenyl)-7-(trifluoromethyl)indolin-2-one] | selective for ERα positive cancer cell lines | no effect | – | –
O=C1Nc2c(C(F)(F)F)cccc2C1(c1ccc(O)cc1)c1ccc(OC(F)(F)F)cc1 (single isomer, unassigned; (-)) [(−)-105, 3-(4-hydroxyphenyl)-3-(4-(trifluoromethoxy)phenyl)-7-(trifluoromethyl)indolin-2-one] | – | – | 42 | eradicates
